Laboratory results: ChEMBL document CHEMBL5154690, “Discovery of a tricyclic farnesoid X receptor agonist HEC96719, a clinical candidate for treatment of non-alcoholic steatohepatitis” (Eur J Med Chem, 2022)
Activity calls are given as the source filed them. No cut-off for these calls is given here.

How the values were obtained:
Bile acid receptor [1] = molecular target: T1, Bile acid receptor (Homo sapiens, UniProt Q96RI1); experiment: Agonist activity at human FXR expressed in HEK293T cells by luciferase reporter assay; format: cell-based
T1 sequence (Q96RI1 whole entry): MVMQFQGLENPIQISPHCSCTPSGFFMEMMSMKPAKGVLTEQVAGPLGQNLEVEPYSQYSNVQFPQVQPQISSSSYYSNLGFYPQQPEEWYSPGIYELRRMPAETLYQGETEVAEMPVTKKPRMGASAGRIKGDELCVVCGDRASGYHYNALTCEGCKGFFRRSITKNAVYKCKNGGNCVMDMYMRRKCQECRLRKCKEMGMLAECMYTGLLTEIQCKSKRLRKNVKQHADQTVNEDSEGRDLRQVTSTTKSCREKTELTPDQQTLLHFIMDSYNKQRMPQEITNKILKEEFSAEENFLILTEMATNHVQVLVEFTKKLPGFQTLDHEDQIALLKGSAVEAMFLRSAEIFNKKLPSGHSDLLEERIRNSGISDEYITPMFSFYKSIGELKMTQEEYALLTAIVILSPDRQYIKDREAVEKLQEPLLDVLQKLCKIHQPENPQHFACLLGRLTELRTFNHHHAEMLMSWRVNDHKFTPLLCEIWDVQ

Bile acid receptor [2] = molecular target: T1, Bile acid receptor; experiment: Agonist activity at FXR-LBD (unknown origin) assessed as induction of coactivator SRC-1 peptide recruitment measured by TR-FRET assay
[3] = Toxicity in alpha-naphthyl- isothiocyanate (ANIT)-induced cholestatic injury model of Sprague-Dawley rat assessed as effect on […] death at 10 mg/kg, po administered once daily for 4 days; format: organism-based; settings: in vivo, 96 h, time 4 day
[4] = AUC (0 to t) in male Sprague-Dawley rat at 1 mg/kg, iv measured by LC-MS/MS analysis; format: ADME, organism-based; set-up: dose 1 mg/kg, route iv; settings: in vivo
[5] = Volume of distribution at steady state in male Sprague-Dawley rat at 1 mg/kg, iv measured by LC-MS/MS analysis; format: ADME, organism-based; settings: in vivo, read-out: Vdss
Mus musculus [6] = experiment: Anti-NASH activity against high fat (HF) diet-induced nonalcoholic steatohepatitis in leptin-deficient ob/ob mouse model assessed as reduction in liver cholesterol level at 3 mg/kg, po administered once daily from week 5 to 10; format: functional, organism-based
[7] = AUC (0 to t) in male Sprague-Dawley rat at 5 mg/kg, po measured by LC-MS/MS analysis; format: ADME, organism-based; set-up: dose 5 mg/kg, route po; settings: in vivo
[8] = Cmax in male Sprague-Dawley rat at 5 mg/kg, po measured by LC-MS/MS analysis; format: ADME, organism-based; set-up: dose 5 mg/kg, route po; settings: in vivo
Mus musculus [9] = experiment: Anti-NASH activity against high fat (HF) diet-induced nonalcoholic steatohepatitis in leptin-deficient ob/ob mouse model assessed as reduction in serum ALT level at 3 mg/kg, po administered once daily from week 5 to 10; format: functional, organism-based
[10] = Toxicity in alpha-naphthyl- isothiocyanate (ANIT)-induced cholestatic injury model of Sprague-Dawley rat assessed as effect on […] death; settings: in vivo
[11] = Half-life in male Sprague-Dawley rat at 5 mg/kg, po measured by LC-MS/MS analysis; format: ADME, organism-based; settings: in vivo
Mus musculus [12] = experiment: Anti-NASH activity against high fat (HF) diet-induced nonalcoholic steatohepatitis in leptin-deficient ob/ob mouse model assessed as reduction in serum TG level at 3 mg/kg, po administered once daily from week 5 to 10; format: functional, organism-based
[13] = Clearance in male Sprague-Dawley rat at 1 mg/kg, iv measured by LC-MS/MS analysis; format: ADME, organism-based; settings: in vivo
[14] = Oral bioavailability in male Sprague-Dawley rat at 5 mg/kg measured by LC-MS/MS analysis; format: ADME, organism-based; settings: in vivo

Row | SMILES | EC50 (Bile acid receptor [1]) [nM] | EC50 (Bile acid receptor [2]) [nM] | AUC(0-t) [4] [ng·h/mL] | Vd [5] [L/kg] | Activity (Mus musculus [6]) | AUC(0-t) [7] [ng·h/mL] | Cmax [8] [ng/mL] | Activity (Mus musculus [9]) | half-life [11] [min] | Activity (Mus musculus [12]) | clearance [13] [mL/min/kg] | bioavailability [14] [%] | other results
1 | O=C(O)c1ccc2c(c1)Oc1ccc(OCc3c(-c4c(Cl)cccc4Cl)noc3C3CC3)nc1CO2 | 114 | 14.3 |  |  |  |  |  |  |  |  |  |  | 
2 | O=C(O)c1ccc2c(c1)Oc1ncc(OCc3c(-c4c(Cl)cccc4Cl)noc3C3CC3)cc1CC2 |  | 37 |  |  |  |  |  |  |  |  |  |  | 
3 | O=C(O)c1ccc2c(c1)Oc1ccc(OCc3c(-c4c(Cl)cccc4Cl)noc3C3CC3)cc1CC2 | 345 | 833 |  |  |  |  |  |  |  |  |  |  | Activity [3]: Toxic
4 | O=C(O)c1ccc2c(c1)Oc1ccc(OCc3c(-c4c(Cl)cccc4Cl)noc3C3CC3)nc1CC2 | 102 | 3.57 | 1180 | 0.4 | Active | 1250 | 3000 | Active | 44.4 | Active | 14.3 | 37.1 | Activity [10]: Non-Toxic
5 | CC1Cc2ccc(C(=O)O)cc2Oc2ccc(OCc3c(-c4c(Cl)cccc4Cl)noc3C3CC3)nc21 (stereo unspecified) |  |  | 554 | 0.54 | Active | 2230 | 1280 | Active | 55.8 | Active | 30.3 | 44.9 | 
6 | O=C(O)c1cc(F)c2c(c1)Oc1ccc(OCc3c(-c4c(Cl)cccc4Cl)noc3C3CC3)nc1CC2 | 372 |  |  |  |  |  |  |  |  |  |  |  | 
7 | O=C(O)c1ccc2c(c1)Oc1cnc(OCc3c(-c4c(Cl)cccc4Cl)noc3C3CC3)cc1CC2 | 161 | 11.7 |  |  |  |  |  |  |  |  |  |  | 
8 | CC1=Cc2nc(OCc3c(-c4c(Cl)cccc4Cl)noc3C3CC3)ccc2Oc2cc(C(=O)O)ccc21 | 87.3 | 6.03 |  |  |  |  |  |  |  |  |  |  | 
9 | CC1=Cc2ccc(C(=O)O)cc2Oc2ccc(OCc3c(-c4c(Cl)cccc4Cl)noc3C3CC3)nc21 |  |  | 963 | 0.35 | Active | 1180 | 2210 | Active | 72 | Active | 17.5 | 46.2 | 
10 | O=C(O)c1ccc2c(c1)Oc1ccc(OCc3c(-c4c(Cl)cccc4Cl)noc3C3CC3)nc1C=C2F | 219 | 17.3 |  |  |  |  |  |  |  |  |  |  | 
